According to the supplement of paper PMC10307832:

Each cell line was assayed with C1CSC2=C(C(=O)N1)SC3=C2C=C(C=C3)O [kb NB 142-70] + Cc1nc(NC(=O)N2CCC[C@H]2C(N)=O)sc1-c1ccnc(C(C)(C)C(F)(F)F)c1 [Alpelisib] (partner 2 µM) (assay: relative viability (nuclei count vs DMSO), 5 days (fraction); higher = more cells survive). Details: first compound 0.1 µM.
How it was run: (§1)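 For relative viability, nuclei counts in treated wells were divided by those in vehicle wells. Lung cancer cell lines had been pin-tool dosed in 1536-well plates the day after seeding and cultured for 5 days, then fixed and stained in one step (final 0.05% Triton X-100, 1% formaldehyde, 1 ug/ml Hoechst) and imaged at 4×. Doses were one drug alone or a fixed anchor-drug dose plus five library-drug doses (not always all listed) in √10 steps, and values are duplicate-plate medians.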
Cell Line NCI-H727 has a relative viability of 0.65.
In the case of EBC-1, the relative viability is reported as 0.864.
With NCI-H1703 the relative viability was 0.391.
Work on NCI-H1993 yielded a relative viability of 0.761.
For SW 1573, the relative viability was 0.86.
Work on NCI-H838 yielded a relative viability of 1.02.
With LCLC-103H the relative viability was 0.998.
For NCI-H520, the relative viability was 0.728.
NCI-H2126 was tested, and the relative viability was 0.748.
Work on EMC-BAC-2 yielded a relative viability of 0.74.
Work on NCI-H2085 yielded a relative viability of 0.869.
Cell Line Calu-6 has a relative viability of 0.984.
HCC-366 gave a relative viability of 0.425.
Cell Line NCI-H1666 has a relative viability of 0.805.
Work on NCI-H596 yielded a relative viability of 0.454.
LK-2 showed a relative viability of 1.1.
In the case of NCI-H2087, the relative viability is reported as 1.16.
With SK-MES-1 the relative viability was 0.932.
H3255 was tested, and the relative viability was 0.621.
COR-L23 was tested, and the relative viability was 0.757.
COR-L 105 gave a relative viability of 1.11.
IA-LM was tested, and the relative viability was 0.795.
Work on LOU-NH91 yielded a relative viability of 0.705.
NCI-H2170 gave a relative viability of 0.76.
Cell Line NCI-H2405 has a relative viability of 0.743.
Work on HOP-62 yielded a relative viability of 1.18.
HCC-44 was tested, and the relative viability was 0.772.
A549 was tested, and the relative viability was 0.714.
Work on LU99A yielded a relative viability of 0.517.
For BEN, the relative viability was 0.922.
For HARA, the relative viability was 0.786.
Work on HCC-78 yielded a relative viability of 0.363.
NCI-H322M gave a relative viability of 0.813.
With LCLC-97TM1 the relative viability was 0.236.
With NCI-H1299 the relative viability was 1.02.
NCI-H1563 was tested, and the relative viability was 0.963.
ABC-1 was tested, and the relative viability was 1.16.

Same assay, conditions: first compound 1 µM
In the case of NCI-H727, the relative viability is reported as 0.72.
With EBC-1 the relative viability was 0.798.
NCI-H1703 showed a relative viability of 0.362.
Work on NCI-H1993 yielded a relative viability of 0.654.
Work on SW 1573 yielded a relative viability of 0.549.
NCI-H838 gave a relative viability of 1.06.
In the case of LCLC-103H, the relative viability is reported as 0.944.
NCI-H520 showed a relative viability of 0.961.
NCI-H2126 showed a relative viability of 0.763.
EMC-BAC-2 showed a relative viability of 0.754.
NCI-H2085 gave a relative viability of 0.901.
Calu-6 was tested, and the relative viability was 0.867.
HCC-366 was tested, and the relative viability was 0.333.
For NCI-H1666, the relative viability was 1.01.
NCI-H596 was tested, and the relative viability was 0.483.
For LK-2, the relative viability was 0.72.
Work on NCI-H2087 yielded a relative viability of 1.22.
SK-MES-1 was tested, and the relative viability was 0.922.
With H3255 the relative viability was 0.754.
COR-L23 gave a relative viability of 0.808.
In the case of COR-L 105, the relative viability is reported as 0.989.
IA-LM showed a relative viability of 0.759.
LOU-NH91 was tested, and the relative viability was 0.675.
In the case of NCI-H2170, the relative viability is reported as 0.852.
NCI-H2405 gave a relative viability of 0.802.
Cell Line HOP-62 has a relative viability of 0.777.
HCC-44 showed a relative viability of 0.875.
For A549, the relative viability was 0.654.
LU99A gave a relative viability of 0.499.
In the case of BEN, the relative viability is reported as 0.982.
For HARA, the relative viability was 0.726.
For HCC-78, the relative viability was 0.348.
NCI-H322M was tested, and the relative viability was 0.815.
With LCLC-97TM1 the relative viability was 0.245.
NCI-H1299 showed a relative viability of 1.11.
NCI-H1563 gave a relative viability of 0.967.
ABC-1 showed a relative viability of 0.932.

Same assay, conditions: first compound 3.162 µM
In the case of NCI-H727, the relative viability is reported as 0.495.
Work on EBC-1 yielded a relative viability of 0.491.
NCI-H1703 was tested, and the relative viability was 0.444.
With NCI-H1993 the relative viability was 0.555.
Work on SW 1573 yielded a relative viability of 0.529.
For NCI-H838, the relative viability was 0.91.
Work on LCLC-103H yielded a relative viability of 0.961.
NCI-H520 was tested, and the relative viability was 0.513.
With NCI-H2126 the relative viability was 0.758.
EMC-BAC-2 showed a relative viability of 0.572.
NCI-H2085 was tested, and the relative viability was 0.658.
Calu-6 was tested, and the relative viability was 0.478.
Cell Line HCC-366 has a relative viability of 0.296.
With NCI-H1666 the relative viability was 0.632.
NCI-H596 gave a relative viability of 0.347.
Cell Line LK-2 has a relative viability of 0.438.
In the case of NCI-H2087, the relative viability is reported as 0.858.
In the case of SK-MES-1, the relative viability is reported as 0.833.
In the case of H3255, the relative viability is reported as 0.768.
In the case of COR-L23, the relative viability is reported as 0.282.
COR-L 105 gave a relative viability of 1.03.
In the case of IA-LM, the relative viability is reported as 0.756.
For LOU-NH91, the relative viability was 0.492.
With NCI-H2170 the relative viability was 0.561.
Cell Line NCI-H2405 has a relative viability of 0.723.
With HOP-62 the relative viability was 0.937.
For HCC-44, the relative viability was 0.735.
A549 was tested, and the relative viability was 0.14.
LU99A was tested, and the relative viability was 0.354.
Cell Line BEN has a relative viability of 0.689.
In the case of HARA, the relative viability is reported as 0.516.
HCC-78 was tested, and the relative viability was 0.335.
NCI-H322M showed a relative viability of 0.882.
Cell Line LCLC-97TM1 has a relative viability of 0.181.
For NCI-H1299, the relative viability was 1.17.
NCI-H1563 gave a relative viability of 0.932.
Work on ABC-1 yielded a relative viability of 0.796.

The cell lines below were run with NCC(=O)Nc1ccc(-n2nc(C(F)(F)F)cc2-c2ccc3c(ccc4ccccc43)c2)cc1 + CC(=O)Nc1cccc(-n2c(=O)n(C3CC3)c(=O)c3c(Nc4ccc(I)cc4F)n(C)c(=O)c(C)c32)c1 [Trametinib] (partner 0.02 µM) in the same assay as above. Details: first compound 0.02 µM.
How it was run: as §1
Work on NCI-H2342 yielded a relative viability of 0.887.
NCI-H727 was tested, and the relative viability was 0.411.
For NCI-H1650, the relative viability was 0.403.
NCI-H1993 gave a relative viability of 0.494.
In the case of SW 1573, the relative viability is reported as 0.551.
In the case of NCI-H838, the relative viability is reported as 0.515.
LCLC-103H showed a relative viability of 0.67.
Cell Line NCI-H520 has a relative viability of 0.637.
Cell Line NCI-H2126 has a relative viability of 0.586.
EMC-BAC-2 was tested, and the relative viability was 0.824.
NCI-H2085 showed a relative viability of 0.402.
Work on HCC-366 yielded a relative viability of 0.361.
Work on NCI-H1666 yielded a relative viability of 0.905.
With NCI-H596 the relative viability was 0.804.
In the case of LK-2, the relative viability is reported as 0.659.
NCI-H2087 showed a relative viability of 0.155.
Cell Line NCI-H1648 has a relative viability of 0.414.
SK-MES-1 showed a relative viability of 0.56.
H3255 gave a relative viability of 0.642.
With COR-L23 the relative viability was 0.593.
COR-L 105 gave a relative viability of 0.456.
In the case of LOU-NH91, the relative viability is reported as 0.847.
ChaGo-K-1 gave a relative viability of 0.832.
In the case of NCI-H2170, the relative viability is reported as 0.89.
For NCI-H2405, the relative viability was 0.5.
HOP-62 was tested, and the relative viability was 0.395.
HCC-44 was tested, and the relative viability was 0.792.
In the case of NCI-H522, the relative viability is reported as 0.596.
Cell Line LU99A has a relative viability of 0.548.
Cell Line BEN has a relative viability of 0.861.
HARA gave a relative viability of 0.792.
SW 900 was tested, and the relative viability was 0.889.
HCC-78 showed a relative viability of 0.755.
NCI-H322M showed a relative viability of 0.521.
Work on LCLC-97TM1 yielded a relative viability of 0.21.

Same assay, conditions: first compound 0.06325 µM
Work on NCI-H2342 yielded a relative viability of 0.877.
NCI-H727 gave a relative viability of 0.372.
For NCI-H1650, the relative viability was 0.54.
For NCI-H1993, the relative viability was 0.41.
For SW 1573, the relative viability was 0.436.
With NCI-H838 the relative viability was 0.539.
With LCLC-103H the relative viability was 0.688.
Cell Line NCI-H520 has a relative viability of 0.641.
For NCI-H2126, the relative viability was 0.599.
With EMC-BAC-2 the relative viability was 0.909.
NCI-H2085 was tested, and the relative viability was 0.623.
With HCC-366 the relative viability was 0.408.
NCI-H1666 was tested, and the relative viability was 0.849.
